Laboratory results taken from patent publication US9421209B2, “Kinase modulators” (Rhizen Pharmaceuticals SA, priority 2009, dated 2016).

Columns and labels:
[1] = molecular target: P110 δ/Pi3K δ (Homo sapiens, UniProt O00329); assay: Fluorescent (HTRF) determination of PI3K enzyme activity, δ isoform; type: biochemical; set-up: inhibition: dose or concentration left out as unconfirmed; conditions: for IC50: read-out: P110 δ/Pi3K δ IC 50 nM
Procedure, shortened: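 IC50 fitted from percent inhibition relative to blank and enzyme-only wells. Human PI3Kδ converts PIP2 to PIP3 after addition of 400 μM ATP solution, 30 min at room temperature. Product read by time-resolved FRET after stop and 6–18 h dark incubation with detection reagents.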

Chain of P110 δ/Pi3K δ (O00329 whole entry, canonical isoform): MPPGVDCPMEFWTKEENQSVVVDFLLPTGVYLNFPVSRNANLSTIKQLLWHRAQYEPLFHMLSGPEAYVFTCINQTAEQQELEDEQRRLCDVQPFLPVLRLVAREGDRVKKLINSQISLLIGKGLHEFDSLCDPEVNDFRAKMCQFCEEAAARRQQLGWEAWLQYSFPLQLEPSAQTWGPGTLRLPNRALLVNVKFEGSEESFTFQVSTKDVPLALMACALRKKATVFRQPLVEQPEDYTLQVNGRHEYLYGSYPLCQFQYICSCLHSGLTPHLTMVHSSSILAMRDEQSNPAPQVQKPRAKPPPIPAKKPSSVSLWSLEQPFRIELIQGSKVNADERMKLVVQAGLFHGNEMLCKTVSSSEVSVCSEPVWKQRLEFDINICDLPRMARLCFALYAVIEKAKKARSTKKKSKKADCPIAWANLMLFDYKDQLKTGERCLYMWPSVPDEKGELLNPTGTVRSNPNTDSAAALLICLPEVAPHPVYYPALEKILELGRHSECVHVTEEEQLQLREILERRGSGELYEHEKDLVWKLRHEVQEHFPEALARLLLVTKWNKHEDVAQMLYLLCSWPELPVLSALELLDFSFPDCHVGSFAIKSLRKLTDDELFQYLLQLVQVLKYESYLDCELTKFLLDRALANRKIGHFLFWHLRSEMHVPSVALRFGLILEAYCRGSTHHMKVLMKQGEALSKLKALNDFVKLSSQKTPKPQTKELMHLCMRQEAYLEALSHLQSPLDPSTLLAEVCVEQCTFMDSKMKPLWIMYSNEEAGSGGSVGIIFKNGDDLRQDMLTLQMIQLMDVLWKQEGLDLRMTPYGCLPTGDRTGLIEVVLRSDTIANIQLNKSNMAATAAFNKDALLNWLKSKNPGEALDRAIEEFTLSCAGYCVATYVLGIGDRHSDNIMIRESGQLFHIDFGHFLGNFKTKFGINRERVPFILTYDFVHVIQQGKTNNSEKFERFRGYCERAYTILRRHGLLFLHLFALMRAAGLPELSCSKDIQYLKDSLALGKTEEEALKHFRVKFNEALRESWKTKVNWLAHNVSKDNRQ
Chain of P110 δ/Pi3K δ (P27986 whole entry partner, canonical isoform): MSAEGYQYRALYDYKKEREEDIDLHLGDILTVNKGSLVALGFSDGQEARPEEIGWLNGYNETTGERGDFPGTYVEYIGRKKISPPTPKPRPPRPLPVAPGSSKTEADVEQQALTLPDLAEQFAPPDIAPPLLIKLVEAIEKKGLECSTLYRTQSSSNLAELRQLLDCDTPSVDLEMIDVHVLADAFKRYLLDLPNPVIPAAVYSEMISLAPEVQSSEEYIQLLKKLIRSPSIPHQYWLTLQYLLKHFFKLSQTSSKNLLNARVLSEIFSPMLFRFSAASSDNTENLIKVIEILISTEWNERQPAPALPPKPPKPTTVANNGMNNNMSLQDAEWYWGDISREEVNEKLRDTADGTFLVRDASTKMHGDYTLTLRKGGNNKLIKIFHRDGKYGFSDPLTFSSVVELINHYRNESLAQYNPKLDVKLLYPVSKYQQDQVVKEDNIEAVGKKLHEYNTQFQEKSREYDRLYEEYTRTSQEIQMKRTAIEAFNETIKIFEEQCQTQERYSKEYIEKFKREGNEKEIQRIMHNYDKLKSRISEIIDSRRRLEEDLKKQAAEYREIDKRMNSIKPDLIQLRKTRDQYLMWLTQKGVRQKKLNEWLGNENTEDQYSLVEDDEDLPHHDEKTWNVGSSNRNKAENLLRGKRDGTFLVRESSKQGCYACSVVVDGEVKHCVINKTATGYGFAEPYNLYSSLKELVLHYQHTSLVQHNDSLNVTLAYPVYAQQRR

inhibition [1] [%] | melting point [°C] | inhibition at 1 µM [1] [%] | IC50 [1] [nM] | Structure (SMILES)
50 to 100 | 171 to 173 |  |  | CC(c1oc2ccccc2c(=O)c1-c1cccc(F)c1)n1nc(C#CCO)c2c(N)ncnc21 (stereo not drawn) [Example 83, 2-(1-(4-amino-3-(3-hydroxyprop-1-ynyl)-1H-pyrazolo[3,4-d]pyrimidin-1-yl)ethyl)-3-(3-fluorophenyl)-4H-chromen-4-one]
< 50 | 185 to 189 |  |  | CC(c1oc2ccccc2c(=O)c1-c1cccc(F)c1)n1nc(-c2ccccc2CO)c2c(N)ncnc21 (stereo not drawn) [Example 81, 2-(1-(4-amino-3-(2-(hydroxymethyl)phenyl)-1H-pyrazolo[3,4-d]pyrimidin-1-yl)ethyl)-3-(3-fluorophenyl)-4H-chromen-4-one]
 | 238 to 242 | < 50 |  | Nc1ncnc2c1ncn2Cc1oc2ccc(Br)cc2c(=O)c1-c1ccc(F)cc1 [Example 15, 2-[(6-Amino-9H-purin-9-yl)methyl]-6-bromo-3-(4-fluorophenyl)-4H-chromen-4-one]
 | 155 to 158 | < 50 |  | O=c1c(-c2ccccc2)c(CNc2ncnc3[nH]cnc23)oc2ccccc12 [Example 43, 2-((9H-purin-6-ylamino)methyl)-3-phenyl-4H-chromen-4-one]
50 to 100 | 226 to 229 |  |  | CC(c1oc2ccccc2c(=O)c1-c1cccc(F)c1)n1nc(-c2csc3ccccc23)c2c(N)ncnc21 (stereo not drawn) [Example 173, 2-(1-(4-amino-3-(benzo[b]thiophen-3-yl)-1H-pyrazolo[3,4-d]pyrimidin-1-yl)ethyl)-3-(3-fluorophenyl)-4H-chromen-4-one]
 | 135 to 138 | 50 to 100 |  | C[C@H](Nc1ncnc2[nH]cnc12)c1oc2ccccc2c(=O)c1-c1ccccc1 [Example 73, (S)-2-(1-(9H-purin-6-ylamino)ethyl)-3-phenyl-4H-chromen-4-one]
 | 186 to 191 | < 50 |  | O=c1c(-c2ccccc2)c(Cn2cnc3ccccc32)oc2ccccc12 [Example 7, 2-[(1H-benzo[d]imidazol-1-yl)methyl]-3-phenyl-4H-chromen-4-one]
 | 223 to 225 | 50 to 100 | 250 to 500 | CCC(c1oc2ccccc2c(=O)c1-c1ccccc1)n1cnc2c(N)ncnc21 (stereo not drawn) [Example 31, 2-(1-(6-Amino-9H-purin-9-yl)propyl)-3-phenyl-4H-chromen-4-one]
 | 267 to 269 | < 50 |  | CC(c1oc2ccccc2c(=O)c1-c1cc(F)cc(F)c1)n1cnc2c(N)ncnc21 (stereo not drawn) [Example 49, 2-(1-(6-Amino-9H-purin-9-yl)ethyl)-3-(3,5-difluorophenyl)-4H-chromen-4-one]
 | 208 to 209 | < 50 |  | Cl.O=c1c(-c2ccccc2)c(CN2CCOCC2)oc2ccccc12 [Example 4a, 2-(Morpholinomethyl)-3-phenyl-4H-chromen-4-one hydrochloride]
 | 176 to 179 | < 50 |  | Cc1cccc2c1ncn2Cc1oc2ccc(Br)cc2c(=O)c1-c1ccccc1 [Example 6, 6-Bromo-2-[(4-methyl-1H-benzo[d]imidazol-1-yl)methyl]-3-phenyl-4H-chromen-4-one]
50 to 100 | 122 to 124 |  |  | CC(c1oc2ccccc2c(=O)c1-c1cccc(F)c1)n1nc(-c2cc(O)cc(Cl)c2)c2c(N)ncnc21 (stereo not drawn) [Example 86a, 2-(1-(4-amino-3-(3-chloro-5-hydroxyphenyl)-1H-pyrazolo[3,4-d]pyrimidin-1-yl)ethyl)-3-(3-fluorophenyl)-4H-chromen-4-one]
 | 282 to 285 | 50 to 100 | < 250 | CC(c1oc2ccccc2c(=O)c1-c1cccc(F)c1)n1nc(-c2cccc(O)c2)c2c(N)ncnc21 (stereo not drawn) [Example 51a, 2-(1-(4-amino-3-(3-hydroxyphenyl)-1H-pyrazolo[3,4-d]pyrimidin-1-yl)ethyl)-3-(3-fluorophenyl)-4H-chromen-4-one]
 | 247 to 250 | 50 to 100 |  | CC(c1oc2ccccc2c(=O)c1-c1ccccc1F)n1cnc2c(N)ncnc21 (stereo not drawn) [Example 34, 2-(1-(6-Amino-9H-purin-9-yl)ethyl)-3-(2-fluorophenyl)-4H-chromen-4-one]
 | 202 to 205 | < 50 |  | Nc1ncnc2c1ncn2Cc1oc2ccccc2c(=O)c1-c1ccccc1F [Example 33, 2-((6-Amino-9H-purin-9-yl)methyl)-3-(2-fluorophenyl)-4H-chromen-4-one]
 | 245 to 248 | < 50 |  | CC(c1oc2ccc(F)cc2c(=O)c1-c1ccccc1F)n1cnc2c(N)ncnc21 (stereo not drawn) [Example 48, 2-(1-(6-amino-9H-purin-9-yl)ethyl)-6-fluoro-3-(2-fluorophenyl)-4H-chromen-4-one]

inhibition [1] [%] | melting point [°C] | inhibition at 1 µM [1] [%] | IC50 [1] [nM] | Structure (SMILES)
 | 176 to 178 | 50 to 100 |  | COc1cccc(-c2nn(C(C)c3oc4ccccc4c(=O)c3-c3ccccc3)c3ncnc(N)c23)c1 (stereo not drawn) [Example 41, 2-(1-(4-Amino-3-(3-methoxyphenyl)-1H-pyrazolo[3,4-d]pyrimidin-1-yl)ethyl)-3-phenyl-4H-chromen-4-one]
 | 111 to 115 | < 50 |  | COc1cccc(-c2nn(Cc3oc4ccccc4c(=O)c3-c3ccccc3)c3ncnc(N)c23)c1 [Example 52, 2-((4-Amino-3-(3-methoxyphenyl)-1H-pyrazolo[3,4-d]pyrimidin-1-yl)methyl)-3-phenyl-4H-chromen-4-one]
 | 214 to 218 | < 50 |  | O=c1c(-c2ccccc2)c(CSc2ncnc3[nH]cnc23)oc2ccc(Br)cc12 [Example 13, 2-[(9H-Purin-6-ylthio)methyl]-6-bromo-3-phenyl-4H-chromen-4-one]
< 50 | 224 to 227 |  |  | Nc1ncnc2c1ncn2Cc1oc2ccccc2c(=O)c1-c1cccc(F)c1 [Example 89, 2-((6-amino-9H-purin-9-yl)methyl)-3-(3-fluorophenyl)-4H-chromen-4-one]
50 to 100 | 197 to 199 |  |  | CC(c1oc2ccccc2c(=O)c1-c1cccc(F)c1)n1nc(-c2ccc3[nH]ccc3c2)c2c(N)ncnc21 (stereo not drawn) [Example 100, 2-(1-(4-amino-3-(1H-indol-5-yl)-1H-pyrazolo[3,4-d]pyrimidin-1-yl)ethyl)-3-(3-fluorophenyl)-4H-chromen-4-one]
 | 214 to 217 | 50 to 100 |  | CC(c1oc2ccccc2c(=O)c1-c1ccccc1)n1nc(-c2cn[nH]c2)c2c(N)ncnc21 (stereo not drawn) [Example 69, 2-(1-(4-amino-3-(1H-pyrazol-4-yl)-1H-pyrazolo[3,4-d]pyrimidin-1-yl)ethyl)-3-phenyl-4H-chromen-4-one]
< 50 | 153 to 157 |  |  | CC(C)Oc1cccc(-c2nn(C(C)c3oc4ccccc4c(=O)c3-c3cccc(F)c3)c3ncnc(N)c23)c1 (stereo not drawn) [Example 163, 2-(1-(4-amino-3-(3-isopropoxyphenyl)-1H-pyrazolo[3,4-d]pyrimidin-1-yl)ethyl)-3-(3-fluorophenyl)-4H-chromen-4-one]
< 50 | 269 to 274 |  |  | Cc1c2ccc(-c3nn(C(C)c4oc5ccccc5c(=O)c4-c4cccc(F)c4)c4ncnc(N)c34)cc2nn1C (stereo not drawn) [Example 171, 2-(1-(4-amino-3-(2,3-dimethyl-2H-indazol-6-yl)-1H-pyrazolo[3,4-d]pyrimidin-1-yl)ethyl)-3-(3-fluorophenyl)-4H-chromen-4-one]
 | 175 to 178 | < 50 |  | COc1cccc(-c2nn(Cc3oc4ccccc4c(=O)c3-c3cccc(F)c3)c3ncnc(N)c23)c1 [Example 54, 2-((4-amino-3-(3-methoxyphenyl)-1H-pyrazolo[3,4-d]pyrimidin-1-yl)methyl)-3-(3-fluorophenyl)-4H-chromen-4-one]
< 50 | 171 to 173 |  |  | Cc1c[nH]c2ccc(-c3nn(C(C)c4oc5ccccc5c(=O)c4-c4cccc(F)c4)c4ncnc(N)c34)cc12 (stereo not drawn) [Example 101, 2-(1-(4-Amino-3-(3-methyl-1H-indol-5-yl)-1H-pyrazolo[3,4-d]pyrimidin-1-yl)ethyl)-3-(3-fluorophenyl)-4H-chromen-4-one]
< 50 | 71 to 75 |  |  | CC(c1oc2ccccc2c(=O)c1-c1cccc(F)c1)n1ccc2c(Cl)ncnc21 (stereo not drawn) [Example 166, 2-(1-(4-Chloro-7H-pyrrolo[2,3-d]pyrimidin-7-yl)ethyl)-3-(3-fluorophenyl)-4H-chromen-4-one]
 | 225 to 229 | < 50 |  | Cl.O=c1c(-c2ccc(F)cc2)c(CN2CCOCC2)oc2ccccc12 [Example 18a, 3-(4-fluorophenyl)-2-(morpholinomethyl)-4H-chromen-4-one hydrochloride]
 | 151 to 154 | < 50 |  | C[C@H](Nc1ncnc2[nH]cnc12)c1oc2ccc(Br)cc2c(=O)c1-c1ccccc1 [Example 24, (S)-2-(1-(9H-purin-6-ylamino)ethyl)-6-bromo-3-phenyl-4H-chromen-4-one]
 | 160 to 163 | < 50 |  | CCC(c1oc2ccccc2c(=O)c1-c1ccccc1F)n1cnc2c(N)ncnc21 (stereo not drawn) [Example 35, 2-(1-(6-Amino-9H-purin-9-yl)propyl)-3-(2-fluorophenyl)-4H-chromen-4-one]
 | 271 to 273 | 50 to 100 |  | CC(c1oc2ccccc2c(=O)c1-c1cccc(F)c1)n1nc(-c2cc(O)cc(F)c2)c2c(N)ncnc21 (stereo not drawn) [Example 76a, 2-(1-(4-amino-3-(3-fluoro-5-hydroxyphenyl)-1H-pyrazolo[3,4-d]pyrimidin-1-yl)ethyl)-3-(3-fluorophenyl)-4H-chromen-4-one]
 | 244 to 247 | < 50 |  | Nc1ncnc2c1c(-c1cccc(F)c1)nn2Cc1oc2ccccc2c(=O)c1-c1ccccc1 [Example 63, 2-((4-amino-3-(3-fluorophenyl)-1H-pyrazolo[3,4-d]pyrimidin-1-yl)methyl)-3-phenyl-4H-chromen-4-one]
